This is an account of results in patent US8796457B2, “Compound useful for the treatment of degenerative and inflammatory diseases” (Galapagos NV, priority 2009, dated 2014).

Assay [1] has as its target Recombinant human JAK1 (catalytic domain) (Homo sapiens (Human), UniProt P23458). The assay can be described thus: JAK1 inhibition assay. In kind it is biochemical. As to conditions: average ± standard error of the mean; 7 μM ATP. The protocol: After 60 min at room temperature, reactions were stopped by adding 20 μL/well of detection mixture (1× detection buffer (Perkin Elmer, catalog number CR97-100C), 0.5 nM Europium-anti-phosphotyrosine (PT66) (Perkin Elmer, catalog number AD0068), 10 mM EDTA). […] Kinase activity was calculated by subtracting relative fluorescence units (RFU) obtained in the presence of a positive control inhibitor (10 μM staurosporine) from RFU obtained in the presence of vehicle.
Dose dilution series were prepared for the compounds enabling the testing of dose-response effects in the JAK1 assay and the calculation of the IC50 for the compound. […] The data are expressed as the average IC50 from the assays±standard error of the mean.

Assay [2] concerns the target Recombinant human JAK2 (catalytic domain) (Homo sapiens (Human), UniProt O60674). The assay can be described thus: JAK2 inhibition assay. In kind it is biochemical. To be noted: average ± standard error of the mean; 7.5 μM ATP. The protocol:
Recombinant human JAK2 (catalytic domain, amino acids 866-1154; catalog number PV4210) was purchased from Invitrogen. 0.0125 mU of JAK2 was incubated with 25 nM Ulight-JAK1(tyr1023) peptide (Perkin Elmer catalog number TRF0121) in kinase reaction buffer (41.66 mM HEPES pH7.0, 0.016% Triton X-100, 12.5 mM MgCl2, 3.33 mM DTT, 7.5 μM ATP) with or without 4 μL containing test compound or vehicle (DMSO, 1% final concentration), in a total volume of 20 μL, in a white 384 Luminotrac 200 plate (Greiner, catalog number 781075). […] Readout is performed using the Envision with excitation at 320nm and measuring emission at 615 nm (Perkin Elmer). Kinase activity was calculated by subtracting relative fluorescence units (RFU) obtained in the presence of a positive control inhibitor (10 μM staurosporine) from RFU obtained in the presence of vehicle. The ability of a test compound to inhibit this activity was determined as: Percentage inhibition=((RFU determined for sample with test compound present−RFU determined for sample with positive control inhibitor) divided by (RFU determined in the presence of vehicle−RFU determined for sample with positive control inhibitor))*100. […]

For assay [3], the system named is MMP13 levels in SW1353 cells. The assay can be described thus: OSM/IL-1β signaling assay (MMP13). It counts as cell-based. To be noted: Homo sapiens, 25 ng/mL OSM and 1 ng/mL IL-1β, 48 hours, average ± standard error of the mean. An excerpt: 5% CO2. […] The data are expressed as the average EC50 from the assays±standard error of the mean.
Assay [4] concerns JAK2-dependent pathway (GM-CSF stimulated STAT5 phosphorylation, CD14+ cells) in human whole blood. The assay can be described thus: Whole blood assay, GM-CSF stimulation, Phospho-STAT5 FACS. It counts as cell-based. As to conditions: mean of 3 healthy volunteers, read-out: pIC50 in the inhibition of STAT5 phosphorylation (converted). The protocol:
A flow cytometry analysis was also performed to establish compound selectivity for JAK1 over JAK2, ex vivo using human whole blood.
The increase in phosphorylation of STAT5 by GM-CSF in monocytes was measured using an anti phospho-STAT5 antibody by FACS.
Remaining diluted Lyse/Fix buffer was discarded.
10 μg rhGM-CSF (AbCys S.A., Cat N°P300-03) was dissolved in 100 μl of PBS 0.1% BSA to obtain a 100 μg/ml stock solution. The stock solution was stored aliquoted at −80° C.
Control-treated samples received DMSO without any test compound.
Human blood was collected in heparinized tubes.
50,000 total events were counted and Phospho-STAT5 positive cells were measured after gating on CD14+ cells.

In assay [5] the test system is TNF release. The assay can be described thus: Septic shock model (LPS induced TNF release). In kind it is in vivo, mouse. To be noted: 30 mg/kg po, LPS ip, statistically significant. The protocol: Injection of lipopolysaccharide (LPS) induces a rapid release of soluble tumour necrosis factor (TNF-alpha) into the periphery. This model is used to analyse prospective blockers of TNF release in vivo.
Six BALB/cJ female mice (20 g) per group are treated at the intended dosing once, po. Thirty minutes later, LPS (15 μg/kg; E. Coli serotype 0111:B4) is injected ip. Ninety minutes later, mice are euthanized and blood is collected. Circulating TNF alpha levels are determined using commercially available ELISA kits. Dexamethasone (5 μg/kg) is used as a reference anti-inflammatory compound. Selected compounds are tested at one or multiple doses, e.g. 3 and/or 10 and/or 30 mg/kg, po.

Each structure is given as a SMILES string.

Usually EC50 stands for the concentration that produces a half-maximal response. A low value points to a more potent agent.

Chain of Recombinant human JAK2 (catalytic domain) (O60674 849-1124): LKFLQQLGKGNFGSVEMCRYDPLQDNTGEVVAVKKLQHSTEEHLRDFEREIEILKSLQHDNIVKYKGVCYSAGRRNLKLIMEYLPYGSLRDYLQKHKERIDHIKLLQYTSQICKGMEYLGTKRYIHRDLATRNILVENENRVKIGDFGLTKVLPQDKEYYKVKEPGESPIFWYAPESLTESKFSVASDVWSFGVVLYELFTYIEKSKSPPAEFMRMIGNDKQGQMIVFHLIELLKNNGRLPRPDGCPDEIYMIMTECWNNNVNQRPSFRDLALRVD
Chain of Recombinant human JAK1 (catalytic domain) (P23458 866-1154): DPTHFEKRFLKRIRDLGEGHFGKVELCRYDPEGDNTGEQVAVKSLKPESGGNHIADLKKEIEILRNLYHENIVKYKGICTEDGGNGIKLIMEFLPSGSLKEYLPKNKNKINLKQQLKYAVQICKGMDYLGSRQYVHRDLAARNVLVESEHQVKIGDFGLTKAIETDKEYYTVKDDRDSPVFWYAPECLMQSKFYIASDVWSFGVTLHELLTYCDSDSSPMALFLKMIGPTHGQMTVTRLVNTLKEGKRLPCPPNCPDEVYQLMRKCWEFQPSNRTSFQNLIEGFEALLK

As for `CC1(C)CN(C(=O)c2ccc(-c3cccc4nc(NC(=O)C5CC5)nn34)cc2)C1` [Compound 1, Cyclopropanecarboxylic acid{5-[4-(3,3-dimethyl-azetidine-1-carbonyl)-phenyl]-[1,2,4]triazolo[1,5-a]pyridin-2-yl}-amide], the IC50 was 0.0066 ± 0.0007 µM in assay [1], 0.067 ± 0.005 µM in assay [2] and 4.27 µM in assay [4]. The response in assay [3] was half-maximal at 4.2 ± 2.37 µM (EC50). In assay [5], the “reduction in the TNF release” value is reported as more than 50%.
